Measurements: patent US9394253B2, “Kinase protein binding inhibitors” (Roswell Park Cancer Institute, priority 2011, dated 2016)

Key:
MiaPaCa-2-luc cells [1] = test: MTS cell viability assay, MiaPaCa-2-luc cells; type: cell-based; settings: Homo sapiens, MTS assay at 72 hours
Experimental: (§1) Equal numbers of cells were plated and allowed to attach for 24 hours. Cells were treated with the drug or control as described. Cellular viability was measured using trypan blue exclusion and cell counting with a hemacytometer. Viability was further measured with an MTS (3-(4,5-dimethylthiazol-2-yl)-5-(3-carboxymethoxyphenyl)-2-(4-sulfophenyl)-2H-tetrazolium) assay. MTS in the presence of phenazine methosulfate (PMS), produces a formazan product that has an absorbance maximum at 490-500 nm in phosphate-buffered saline. In brief, cells were plated at 5×10^3 cells per well on 96-well culture plates and allowed to attach. Following treatment with siRNA or peptides, […] was added to each well and the absorbance at 490 nm was measured using a kinetic microplate reader (Vmax, Molecular Devices, Inc., Sunnyvale, Calif.). The MTS assay was performed at 72 hours after exposure of the cells to determine the IC50 for each of the selected compounds.
(§2) In FIGS. 15 and 16, MiaPaCa-2-luc cells (with an IC50 for C9 of 8 μM and for C10 of 20 μM) and MCF-7-VEGFR3 cells (with an IC50 for C9 of 4 μM and for C10 of 8 μM) were treated with 1, 10 or 25 μM C9 or C10 for 24 hours (the MCF-7-VEGFR3 cells serving as a positive control in this study). Western blots were performed as described above to determine the levels of total Akt, phosphorylated Akt (pAkt), total Erk, and phosphorylated Erk (pErk). […]

MiaPaCa-2-luc cells [2] = test: Tumor growth in xenograft nude mice; type: in vivo
Experimental: Female nude or SCID mice were purchased six weeks old and were maintained in the animal facility, and all experiments were performed in compliance with NIH animal use guidelines using IACUC protocol approved by the Roswell Park Animal Care Committee. The 1×10^6 MiaPaCa2 cells were injected into mice subcutaneously. Next day after cell injection or week later, when tumor size reached 100 mm^3, drug was introduced by IP or gavage orally daily, 5 days per week for several weeks. Tumor diameters were measured with calipers and tumor volume in mm^3 was calculated using this formula: tumor volume=(width)^2×Length/2. At the end of the experiment, tumor weight and volume were determined. Tumor samples were collected for Western blotting and for immunohistochemical analysis.
Mice received a daily dose of the indicated amount of compounds 9A, 9B or C10 either by intraperitoneal injection (IP) or by oral gavage (PO). Treatment was initiated after tumors reached a volume of approximately 100 mm^3. […] The percent reduction in tumor volume compared to the control group (“PBS-IP”) is indicated in FIG. 6B for each treatment group.

[3] = tested on: phosphorylated Akt and phosphorylated Erk; test: Western blot of downstream effectors of FAK (Akt, Erk); type: cell-based; settings: MiaPaCa-2-luc and MCF-7-VEGFR3 cells, 1, 10 or 25 μM for 24 hours
Experimental: Western blots were performed essentially as previously described. See: Beierle E, Ma X, Trujillo A, Kurenova E, Cance W, Golubovskaya V: Inhibition of focal adhesion kinase and src increases detachment and apoptosis in human neuroblastoma cell lines. Mol Carcinog 2010, 49:224-234; Kurenova E, Xu L, Yang X, Baldwin A J, Craven R, Hanks S, Liu Z, Cance W: Focal adhesion kinase suppresses apoptosis by binding to the death domain of receptor-interacting protein. Mol Cell Biol 2004, 24:4361-4371. Briefly, cells were treated with the agent under study, then lysed on ice for 30 min in a buffer containing 50 mM Tris-HCL, (pH 7.5), 150 mM NaCl, 1% Triton-X, 0.5% NaDOC, 0.1% SDS, 5 mM EDTA, 50 mM NaF, 1 mM NaVO3, 10% glycerol, and protease inhibitors: 10 μg/mL leupeptin, 10 μg/mL PMSF and 1 μg/ML aprotinin. The lysates were cleared by centrifugation at 10 000 rpm for 30 min at 4° C. Protein concentrations were determined using a Bio-Rad kit (BioRad, Hercules, Calif.) and proteins were separated by electrophoresis on SDS-PAGE gels. Antibodies were used according to manufacturer's recommended conditions. Molecular weight markers were used to confirm the expected size of the target proteins. Immunoblots were developed with chemiluminescence Amersham ECL Western blotting detection reagents (GE Healthcare Biosciences). […]

[4] = tested on: pancreatic cancer cell line; test: Clonogenicity (colony formation); type: cell-based, Human; settings: compared with chloropyramine (C4)
Experimental: The 500-1000 cells were plated on 6 well plates and incubated at 37° C. for 1-2 weeks. Then cells were fixed in 25% methanol and stained with Crystal Violet and colonies were visualized and counted in two independent experiments.
In FIG. 11, results of such a clonogenicity study are shown for compounds C9 and C10 using a pancreatic cancer cell line. In this particular study, since compound C1 is not active against this particular cancer cell line (see FIG. 3), it was used as a negative control. Chloropyramine (“C4”), which has been previously shown to have some activity against this cancer cell line, was used as a positive control.

[5] = molecular target: T1, FAK and VEGFR3 (Flt-4) proteins (Homo sapiens, UniProt Q05397); test: Immunoprecipitation with FAK antibody after treatment of MiaPaCa-2 cells (FAK-VEGFR3 binding); type: cell-based; settings: 24 h of treatment
T1 construct: Immunoprecipitation with FAK antibody after 24 h of treatment of MiaPaCa-2 cells; endogenous in cells; host or cells: MiaPaCa-2
T1 sequence (Q05397 2-1052 limits assumed): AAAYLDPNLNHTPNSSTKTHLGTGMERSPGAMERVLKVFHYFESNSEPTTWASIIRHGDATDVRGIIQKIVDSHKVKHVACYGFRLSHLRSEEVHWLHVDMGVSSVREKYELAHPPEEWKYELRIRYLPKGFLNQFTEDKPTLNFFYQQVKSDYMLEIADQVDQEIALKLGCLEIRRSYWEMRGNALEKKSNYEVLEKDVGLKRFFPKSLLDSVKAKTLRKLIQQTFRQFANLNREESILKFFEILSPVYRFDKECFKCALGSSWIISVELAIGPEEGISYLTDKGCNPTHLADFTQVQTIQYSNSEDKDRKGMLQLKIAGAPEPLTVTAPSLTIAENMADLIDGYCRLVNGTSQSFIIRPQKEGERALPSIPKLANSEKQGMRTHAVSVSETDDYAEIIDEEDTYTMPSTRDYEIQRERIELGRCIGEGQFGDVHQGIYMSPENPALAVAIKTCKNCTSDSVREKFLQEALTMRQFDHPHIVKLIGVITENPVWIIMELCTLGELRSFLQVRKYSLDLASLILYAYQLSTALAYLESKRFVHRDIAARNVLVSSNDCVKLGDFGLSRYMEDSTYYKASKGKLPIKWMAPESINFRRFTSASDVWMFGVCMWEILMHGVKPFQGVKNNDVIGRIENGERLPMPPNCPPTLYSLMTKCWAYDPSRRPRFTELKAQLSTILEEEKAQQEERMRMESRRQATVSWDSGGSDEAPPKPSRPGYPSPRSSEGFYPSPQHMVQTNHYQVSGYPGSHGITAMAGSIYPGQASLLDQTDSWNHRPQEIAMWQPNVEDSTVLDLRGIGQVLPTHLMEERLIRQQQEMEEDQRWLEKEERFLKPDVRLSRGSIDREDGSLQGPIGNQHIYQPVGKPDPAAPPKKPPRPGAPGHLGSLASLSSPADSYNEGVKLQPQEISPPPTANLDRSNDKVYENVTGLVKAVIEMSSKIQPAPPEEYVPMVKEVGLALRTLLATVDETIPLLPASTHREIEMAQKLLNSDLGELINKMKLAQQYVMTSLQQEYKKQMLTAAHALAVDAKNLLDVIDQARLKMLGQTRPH
Experimental: For immunoprecipitation, cells are lysed with NP40 lysis buffer, and 1000 μg of total protein is precleared with protein A/G-agarose beads (CalBiochem) at 4° C. for 1 hour and then incubated with 5 μg of antibody overnight followed by a 2 hour incubation with protein A/G-agarose beads at 4° C. Precipitates are washed thrice with cold PBS and the beads are resuspended in SDS-PAGE sample loading buffer, boiled for 5 minutes, and resolved by SDS-PAGE. Proteins are transferred to polyvinylidene difluoride membrane, probed with the appropriate antibody, and detected with chemiluminescence using Amersham ECL Western blotting detection reagents (GE Healthcare Life Sciences, Piscataway, N.J.).
The study utilized the “Octet Red” technology (ForteBio, Menlo Park, Calif.), which provides real-time monitoring for protein-small molecule interactions and binding events using BioLayer Interferometry (BLI) technology. Any change in the number of molecules bound to the biosensor tip changes the optical layer thickness. […] Since C1 is not active against this pancreatic cancer cell line, it was included as a negative control, and chloropyramine (“C4”), which has been shown previously to be active against this cell line, was used as a positive control.

MCF-7-VEGFR3 cells = test: MTS cell viability assay, MCF-7-VEGFR3 cells; type: cell-based; settings: MTS assay at 72 hours
Experimental: as §1, §2

FAK FAT domain = molecular target: T2, FAK FAT domain (Homo sapiens, UniProt Q05397); test: Label-free OctetRED binding assay
T2 sequence (Q05397 914-1045 limits assumed): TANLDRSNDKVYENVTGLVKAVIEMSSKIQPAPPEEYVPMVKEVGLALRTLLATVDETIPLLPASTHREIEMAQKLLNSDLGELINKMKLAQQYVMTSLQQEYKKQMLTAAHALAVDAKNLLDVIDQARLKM
Source text: We used a label-free OctetRED method for determining kinetic constants for the binding of small molecule inhibitors to the FAK FAT domain.
A label-free OctetRED method was used for determining kinetic constants for the binding of C9 or C10 to the FAK-FAT domain. Label-free analysis of the association and dissociation of a small molecule with the target protein of interest results in the determination of kinetic constants including the association rate constant (ka), dissociation rate constant (kd), and equilibrium dissociation constant (KD).

[6] = tested on: pancreatic cancer cell line; test: Viability of pancreatic cancer cells exposed to compounds (FIG. 3); type: cell-based, Human; settings: 50 μM
Experimental: as §1
FIGS. 1-3 show the results of exposure of the indicated cancer cell lines to 50 μM of the indicated compounds of the invention.

| IC50 (MiaPaCa-2-luc cells [1]) [µM] | concentration at which binding of FAK and VEGFR3 (Flt-4) proteins was disrupted [5] [µM] | IC50 (MCF-7-VEGFR3 cells) [µM] | binding to the FAT domain of FAK (FAK FAT domain) | SMILES | tumor volume compared to vehicle (PBS)-treated tumors (MiaPaCa-2-luc cells [2]; IP 20 mg/kg daily, P<0.05) | effectiveness by route of administration (MiaPaCa-2-luc cells [2]; oral vs intraperitoneal) | phosphorylated Akt level [3] | phosphorylated Erk level [3] | inhibition of colony formation [4] | activity against pancreatic cancer cell line [6] |
| --- | --- | --- | --- | --- | --- | --- | --- | --- | --- | --- |
| 20 | 10 | 8 | – | CN(C)CCN(Cc1ccc(Cl)cc1)c1ccc2ccccc2n1 [Compound C10] | Statistically significant differences | very effective when administered orally | strong down-regulation | strong down-regulation | active at much lower doses than C4 | – |
| – | – | – | does not appear to bind | CN(C)CCNc1ccccn1 [Compound C1] | – | – | – | – | – | not active |
